We go through nine compounds from the NIST ThermoML archive (doi:10.1007/s10765-005-8101-x).

As usually defined, the mass density is mass per unit of volume. In general, speed of sound refers to how fast a sound wave travels through the sample.

± gives the expanded uncertainty stated by the source.

For series [1] the following is noted: 298.15 K; 101.33 kPa; Liquid.
Series [2] can be described thus: xn = mol fraction of the nth substance listed. To be noted: 298.15 K, 101 kPa, Liquid.

With `CCCCCCCCO` [octan-1-ol], in series [1], the mass density is 821.72 ± 2.1 kg/m3 and the speed of sound is recorded as 1347.9 ± 6.5 m/s.

`CC(C)O` [propan-2-ol]: in series [1], the mass density was 781.91 ± 0.62 kg/m3 and the speed of sound was found to be 1141.3 ± 2.7 m/s.

Turning to `CCCCCCO` [hexan-1-ol] + CC(C)O, the mass density in series [2] (x2 = 0.039) was determined as 814.4 ± 1.2 kg/m3; in series [2] (x2 = 0.1037), 813 ± 1.1 kg/m3; in series [2] (x2 = 0.2075) it was 810.57 ± 1.1 kg/m3; in series [2] (x2 = 0.3051), 808.2 ± 1.1 kg/m3; in series [2] (x2 = 0.4032), 805.42 ± 1.1 kg/m3; in series [2] (x2 = 0.5067), 802.47 ± 1.1 kg/m3. Further, the mass density was determined as 799.08 ± 1 kg/m3 in series [2] (x2 = 0.6044), 795.43 ± 1 kg/m3 in series [2] (x2 = 0.7047), 791.12 ± 1 kg/m3 in series [2] (x2 = 0.8059) and 786.44 ± 1 kg/m3 in series [2] (x2 = 0.9081). Moreover, the speed of sound in series [2] (x2 = 0.039) stood at 1299.6 ± 5.9 m/s; in series [2] (x2 = 0.1037), 1292.9 ± 5.9 m/s; in series [2] (x2 = 0.2075) it was 1281.1 ± 5.8 m/s; in series [2] (x2 = 0.3051) it was 1269.2 ± 5.7 m/s; in series [2] (x2 = 0.4032) it was 1255.9 ± 5.7 m/s; in series [2] (x2 = 0.5067), 1241.4 ± 5.6 m/s. The speed of sound in series [2] (x2 = 0.6044) is given as 1225 ± 5.5 m/s; in series [2] (x2 = 0.7047) it was 1207.3 ± 5.4 m/s; in series [2] (x2 = 0.8059), 1186.8 ± 5.4 m/s; in series [2] (x2 = 0.9081) it was 1164.3 ± 5.3 m/s.

With `CCCCCCCCO` [octan-1-ol] + CC(C)O, the mass density is 819.96 ± 1.4 kg/m3 in series [2] (x2 = 0.0862); 817.18 ± 1.4 kg/m3 in series [2] (x2 = 0.2078); 814.58 ± 1.3 kg/m3 in series [2] (x2 = 0.2977); 811.74 ± 1.2 kg/m3 in series [2] (x2 = 0.4059); 808.6 ± 1.2 kg/m3 in series [2] (x2 = 0.5012); 804.77 ± 1.1 kg/m3 in series [2] (x2 = 0.5991). Besides, the mass density in series [2] (x2 = 0.6994) amounted to 800.52 ± 1.1 kg/m3; in series [2] (x2 = 0.7985) it was 795.28 ± 1.1 kg/m3; in series [2] (x2 = 0.8993), 789.09 ± 1 kg/m3; in series [2] (x2 = 0.9453), 785.8 ± 1 kg/m3. Further, the speed of sound in series [2] (x2 = 0.0862) is 1338.7 ± 6.4 m/s; in series [2] (x2 = 0.2078), 1324.2 ± 6.2 m/s; in series [2] (x2 = 0.2977), 1311.6 ± 6.1 m/s; in series [2] (x2 = 0.4059), 1296 ± 6 m/s; in series [2] (x2 = 0.5012) it was 1279.4 ± 5.9 m/s; in series [2] (x2 = 0.5991), 1259.8 ± 5.7 m/s. For the same compound, the speed of sound was 1237.7 ± 5.6 m/s in series [2] (x2 = 0.6994), 1211.1 ± 5.5 m/s in series [2] (x2 = 0.7985), 1179.3 ± 5.3 m/s in series [2] (x2 = 0.8993) and 1162.8 ± 5.3 m/s in series [2] (x2 = 0.9453).

With `CCCCO` [butan-1-ol] + CC(C)O, the mass density in series [2] (x2 = 0.0596) worked out at 804.62 ± 0.95 kg/m3; in series [2] (x2 = 0.1039) it was 803.68 ± 0.95 kg/m3; in series [2] (x2 = 0.2093) it was 801.62 ± 0.96 kg/m3; in series [2] (x2 = 0.3024) it was 799.57 ± 0.96 kg/m3; in series [2] (x2 = 0.3977) it was 797.49 ± 0.97 kg/m3; in series [2] (x2 = 0.5033) it was 794.92 ± 0.98 kg/m3. Further, the mass density in series [2] (x2 = 0.599) stood at 792.68 ± 0.98 kg/m3; in series [2] (x2 = 0.6946) it was 790.21 ± 0.99 kg/m3; in series [2] (x2 = 0.8062), 787.19 ± 1 kg/m3; in series [2] (x2 = 0.8938), 784.58 ± 1 kg/m3. The speed of sound amounted to 1235.6 ± 5.5 m/s in series [2] (x2 = 0.0596); 1231.8 ± 5.5 m/s in series [2] (x2 = 0.1039); 1223.2 ± 5.4 m/s in series [2] (x2 = 0.2093); 1214.8 ± 5.4 m/s in series [2] (x2 = 0.3024); 1206.1 ± 5.4 m/s in series [2] (x2 = 0.3977); 1195.9 ± 5.4 m/s in series [2] (x2 = 0.5033). The speed of sound in series [2] (x2 = 0.599) amounted to 1186.5 ± 5.3 m/s; in series [2] (x2 = 0.6946), 1176.4 ± 5.3 m/s; in series [2] (x2 = 0.8062) it was 1164.1 ± 5.3 m/s; in series [2] (x2 = 0.8938) it was 1153.6 ± 5.2 m/s.

On to `CCCCCCO` [hexan-1-ol], for which, in series [1], the mass density stood at 815.15 ± 1.2 kg/m3 and the speed of sound amounted to 1303.6 ± 5.9 m/s.

Consider `CCCO` [propan-1-ol], for which, in series [1], the mass density came to 800.62 ± 0.6 kg/m3 and the speed of sound was 1208.1 ± 2.8 m/s.

In the case of `CC(C)O` [propan-2-ol] + CCCO, the mass density in series [2] (x1 = 0.1051) came to 798.37 ± 0.97 kg/m3; in series [2] (x1 = 0.195) it was 796.76 ± 0.97 kg/m3; in series [2] (x1 = 0.3049) it was 794.67 ± 0.98 kg/m3; in series [2] (x1 = 0.4062) it was 792.8 ± 0.98 kg/m3; in series [2] (x1 = 0.4941) it was 791.17 ± 0.99 kg/m3; in series [2] (x1 = 0.6029), 789.12 ± 0.99 kg/m3. Besides, the mass density in series [2] (x1 = 0.7067) amounted to 787.16 ± 1 kg/m3; in series [2] (x1 = 0.8063), 785.31 ± 1 kg/m3; in series [2] (x1 = 0.91), 783.37 ± 1 kg/m3; in series [2] (x1 = 0.9515), 782.54 ± 1 kg/m3. Also, the speed of sound in series [2] (x1 = 0.1051) is reported as 1201 ± 5.4 m/s; in series [2] (x1 = 0.195), 1195.4 ± 5.3 m/s; in series [2] (x1 = 0.3049), 1187.9 ± 5.3 m/s; in series [2] (x1 = 0.4062) it was 1181.3 ± 5.3 m/s; in series [2] (x1 = 0.4941), 1175.4 ± 5.3 m/s; in series [2] (x1 = 0.6029) it was 1168 ± 5.3 m/s. Also, the speed of sound in series [2] (x1 = 0.7067) came to 1161 ± 5.2 m/s; in series [2] (x1 = 0.8063) it was 1154.2 ± 5.2 m/s; in series [2] (x1 = 0.91), 1147.5 ± 5.2 m/s; in series [2] (x1 = 0.9515) it was 1144.5 ± 5.2 m/s.

On to `CCCCO` [butan-1-ol], for which, in series [1], the mass density is reported as 806.14 ± 0.59 kg/m3 and the speed of sound is on record as 1240.8 ± 2.9 m/s.
